The values that follow come from PubChem BioAssay (NCI).

Among the test systems are HT29 colon; SN12C renal; A549 NSCLC; OVCAR-8 ovarian; UO-31 renal; K-562 leukemia; HCC-2998 colon; NCI-H226 lung; KM12 colon; CAKI-1 renal; OVCAR-3 ovarian; M14 melanoma; U251 CNS; MDA-MB-435; SK-MEL-28 melanoma; OVCAR-5 ovarian; SNB-75 CNS; SF-539 CNS.
Common to all, as to assay: DTP human tumour cell line panel, 48 h

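Each compound was tested at five concentrations against cells in 96-well plates for 48 hours. TGI: concentration producing complete growth inhibition.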 Where a SMILES comes first, the peptide text is derived from it. The star is where a group is joined. Boc = CC(C)(C)OC(=O)*

Consider `O=C1/C(=C\c2ccc(Cl)cc2Cl)Sc2scc(-c3cccc([N+](=O)[O-])c3)[n+]21`, for which the TGI was 10.9 µM in the test on HT29 colon; 18.4 µM in the test with SN12C renal; 42.3 µM with A549 NSCLC; 29.1 µM in the test on OVCAR-8 ovarian; 13.8 µM with UO-31 renal; over 100 µM with K-562 leukemia. Further, the TGI was determined as 20.5 µM in the test with HCC-2998 colon; 38.2 µM in the test on NCI-H226 lung; 26.7 µM in the test with KM12 colon; 8.21 µM with CAKI-1 renal; 23.4 µM with OVCAR-3 ovarian; 19.9 µM in the test on M14 melanoma. The total growth inhibition concentration (TGI) was 44.1 µM in the test on U251 CNS; 27.8 µM with MDA-MB-435; 59.2 µM with SK-MEL-28 melanoma; 34.4 µM in the test with OVCAR-5 ovarian; over 69.8 µM with SNB-75 CNS.

Regarding `Cc1nc(C)c(C(=O)NNC(=O)Cc2ccccc2)cc1C(=O)NNC(=O)Cc1ccccc1`, the TGI with HT29 colon, in the test with SN12C renal, in the test on A549 NSCLC, in the test on OVCAR-8 ovarian, in the test on UO-31 renal and with K-562 leukemia was over 100 µM throughout. Also, the TGI with HCC-2998 colon, in the test with NCI-H226 lung, with KM12 colon, in the test with CAKI-1 renal, in the test with OVCAR-3 ovarian and in the test with M14 melanoma was over 100 µM throughout. For the same compound, the TGI in the test with U251 CNS, in the test with MDA-MB-435, in the test with SF-539 CNS, in the test on OVCAR-5 ovarian and with SNB-75 CNS was over 100 µM in each case.

Turning to `COc1ccccc1C1SCC(=O)N1c1ccc(-n2c(-c3ccccc3)nc3ccccc3c2=O)cc1` (stereo unspecified), the TGI in the test on HT29 colon, in the test with SN12C renal, with A549 NSCLC, with OVCAR-8 ovarian, in the test with UO-31 renal and with K-562 leukemia was over 100 µM each time. The total growth inhibition concentration (TGI) with HCC-2998 colon, in the test with NCI-H226 lung, with KM12 colon, in the test on CAKI-1 renal, with OVCAR-3 ovarian and in the test with U251 CNS was over 100 µM throughout. For the same compound, the TGI was over 100 µM with MDA-MB-435; over 100 µM in the test with SK-MEL-28 melanoma; over 100 µM with SF-539 CNS; over 100 µM in the test with OVCAR-5 ovarian; 43.1 µM in the test on SNB-75 CNS.

Consider `CC(=O)OC1CCN(C(=O)c2ccccc2)CC1CC1(c2cc3ccccc3[nH]2)OCCO1` (stereo unspecified), for which the TGI in the test on HT29 colon, in the test with SN12C renal, with A549 NSCLC, with OVCAR-8 ovarian, with UO-31 renal and in the test on K-562 leukemia was over 100 µM throughout. In addition, the TGI in the test on HCC-2998 colon, in the test with NCI-H226 lung, in the test with KM12 colon, in the test on CAKI-1 renal, with OVCAR-3 ovarian and in the test on M14 melanoma was over 100 µM throughout. In addition, the TGI with U251 CNS, in the test on MDA-MB-435, with SK-MEL-28 melanoma, in the test on OVCAR-5 ovarian and in the test with SNB-75 CNS was over 100 µM throughout.

Take `CC(NC(=O)C(NC(=O)OC(C)(C)C)C(C)C)C(=O)N1CCCC1C(=O)NCC(=O)NC(C(=O)NCC(=O)O)C(C)C` (stereo unspecified) (Boc-VAPGVG-OH; configuration not given here): the TGI with HT29 colon, in the test with SN12C renal, in the test with OVCAR-8 ovarian, with UO-31 renal, in the test with K-562 leukemia and in the test with HCC-2998 colon was over 100 µM each time. In addition, the TGI in the test with CAKI-1 renal, with OVCAR-3 ovarian, in the test on M14 melanoma, in the test with U251 CNS, with MDA-MB-435 and with SK-MEL-28 melanoma was over 100 µM throughout. Besides, the TGI in the test with SF-539 CNS, in the test on OVCAR-5 ovarian and with SNB-75 CNS was over 100 µM each time.

For the compound `CC1=NN(C(=O)CC(=O)Nc2ccccc2C)C(=O)C1N=Nc1ccc(C(=O)O)cc1` (stereo unspecified), the total growth inhibition concentration (TGI) with HT29 colon, with SN12C renal, with A549 NSCLC, with OVCAR-8 ovarian, in the test on UO-31 renal and with K-562 leukemia was over 100 µM in each case. The concentration for total growth inhibition (TGI) with HCC-2998 colon, in the test on KM12 colon, in the test with CAKI-1 renal, with OVCAR-3 ovarian, in the test on M14 melanoma and in the test on U251 CNS was over 100 µM in each case. For the same compound, the TGI in the test on MDA-MB-435, in the test with SK-MEL-28 melanoma, in the test on SF-539 CNS, with OVCAR-5 ovarian and in the test on SNB-75 CNS was over 100 µM in each case.

In the case of `COc1cc(OC)cc(Oc2nc3ccccc3nc2C(=O)O)c1`, the concentration for total growth inhibition (TGI) in the test on HT29 colon, in the test with A549 NSCLC, with OVCAR-8 ovarian, in the test on UO-31 renal, in the test on K-562 leukemia and in the test with HCC-2998 colon was over 100 µM each time. The TGI with NCI-H226 lung, in the test with KM12 colon, with CAKI-1 renal, with OVCAR-3 ovarian, in the test on M14 melanoma and in the test with U251 CNS was over 100 µM throughout. For the same compound, the TGI in the test on MDA-MB-435, with SK-MEL-28 melanoma, in the test with OVCAR-5 ovarian and in the test on SNB-75 CNS was over 100 µM each time.

For `O=c1[nH]nc(Cc2ccccc2)n1/N=C/c1c(O)ccc2ccccc12`, the TGI was 83.9 µM in the test on HT29 colon; over 100 µM in the test with SN12C renal; over 100 µM with A549 NSCLC; 51.9 µM in the test with OVCAR-8 ovarian; over 100 µM with UO-31 renal; 64.4 µM in the test on K-562 leukemia. Besides, the TGI was over 100 µM with HCC-2998 colon; 73.6 µM in the test with NCI-H226 lung; 81.9 µM in the test on KM12 colon; 88.8 µM in the test with CAKI-1 renal; 47.5 µM with OVCAR-3 ovarian; 38.6 µM in the test with U251 CNS. For the same compound, the TGI in the test on MDA-MB-435 is over 100 µM; with SF-539 CNS, 42.9 µM; with SNB-75 CNS, 79.2 µM.

One may read the TGI as the concentration at which net growth stops. Low values mean more potent growth arrest, high ones less potent growth arrest.
